From US7576212B2, “Thieno[2,3-B] pyridines as potassium channel inhibitors” (Xention Limited, priority 2004, dated 2009)
Each block holds one compound with its values, some of them ahead of it.

Legend:
[1] = target: T1, human Kv1.3 (Homo sapiens, UniProt P22001); assay: Kv1.3 whole cell patch electrophysiology (AutoPatch / conventional); assay type: cell-based; details: 1 μM compound; cells stably transfected with human Kv1.3; whole cell mode; room temperature
T1 construct: expressed in transfected cells
Protocol: Kv1.3 Autopatch Electrophysiology Method
(§1) Cells stably transfected with cDNA for human Kv1.3 were grown in Dulbecco's Modified Eagle media (DMEM) alpha supplemented with 10% Fetal Calf Serum (FCS), 20 μl/ml penicillin (5000 U/ml) streptomycin (5000 μg/ml), 10 μl/ml [100×] glutamine, and blasticidin (7.5 μg/ml). Compounds were tested on these cells using the AutoPatch technology in whole cell mode.
The external bathing solution contained (in mM): 150 NaCl, 10 KCl, 1 MgCl2, 3 CaCl2, 10 HEPES, pH 7.4 with NaOH. Patch pipettes were filled with an electrode solution of composition (in mM): 100 K-Gluconate, 20 KCl, 1 MgCl2, 1 CaCl2, 10 HEPES, 11 EGTA, 5 ATP-Na2, 2 Glutathione pH 7.2 with KOH.
(§2) Compounds were dissolved in DMSO (100%) and made up in the external bather at a concentration of 1 μM. All experiments were conducted at room temperature (22-24° C.).
(§3) A cell suspension (10 ml), with a density of 100,000 cells/ml, was aliquoted into a 15 ml centrifuge tube and transferred to an incubator (37° C., 5% CO2) for approximately one hour before use. Following 60 min incubation, a tube was taken and centrifuged at 1000 rpm for 4 mins at room temperature. 9.5 ml supernatant was thence discarded, leaving a cell pellet at the bottom of the tube. The pellet was then resuspended using 100 μl of cold (4° C.), filtered (0.22 μm), 0.2% BSA/bather solution (0.02 g BSA/10 ml bather). The bottom of the tube was manually agitated gently until the solution became cloudy with cells. The 100 μl cell resuspension solution was then stored on the bench at 4° C. (using a Peltier-based temperature control device) until used.
(§4) A length of capillary glass (1B150F-4, WPI) was dipped into the cell suspension solution, such that ˜3 cm column of fluid was taken up by capillary action. A Ag/AgCl wire was dropped into the non-dipped end of the capillary also. The outside of the solution-filled end of the capillary was then dried and the capillary was loaded into the AutoPatch™. Borosilicate glass patch pipettes (from 1.5 mm OD, thin-walled filamented, GC150-TF capillary glass, Harvard) were pulled using a DMZ pipette puller (Zeitz Instruments), and were back-filled using the internal pipette solution, being careful that no bubbles remain at the tip or in the body of the pipette. Patch pipettes typically had resistances of 2.3-3.5 MΩ. Once filled, the pipette tip and a proportion of the shaft (˜15mm) were dipped into Sigmacote (Sigma). The recording pipette was then loaded into the AutoPatch™. Automated patch-clamping was initiated by the operator, but thereafter AutoPatch.exe continued the experiment providing that pre-set conditions and criteria were satisfied.
(§5) Whole cell patch-clamp recordings were made using the AutoPatch™ rig, which incorporated an EPC9 or EPC10 amplifier (HEKA, Germany) under control of Pulse software (v8.54 or v8.76, HEKA, Germany), a motion controller with 2 translators (Newport, UK), valve controller (VF1) and a c-level suction device all at room temperature (22-24° C.). This equipment was completely under the control of AutoPatch.exe and operator intervention was only made when there was a requirement to refill the drug reservoirs or to prevent the loss of a cell due to a technical error. Cells with an Rseries greater than 18 MΩ were discounted from the experiment.
(§6) Qualification stages prior to perfusion and drug application ensured that the observed current met the criteria for the experiment. Only those cells with an IK>400 pA were used for experiments. Cells were continuously perfused with external solution at a flow rate of 1.8-2 ml/minute. […] Online analysis of the hKv1.3 current during the application of compounds was performed by the AutoPatch™ software. Voltage-step protocols and analysis of data was performed as described for conventional electrophysiology.
Electrophysiology voltage-step protocols and analysis of data was performed as follows. Data was sampled at 5 kHz, and filtered with a −3 dB bandwidth of 2.5 kHz. […]

[2] = target: T2, human Kv1.5 (Homo sapiens, UniProt P22460); assay: Kv1.5 whole cell patch electrophysiology (AutoPatch / conventional); assay type: cell-based; details: 1 μM compound; cells stably transfected with human Kv1.5; whole cell mode; room temperature
T2 construct: expressed in transfected cells
Protocol: Kv1.5 Autopatch Electrophysiology Method
as §1, with “Kv1.5 (in pEF6::VA-His-TOPO)” for “Kv1.3”
The external bathing solution contained (in mM): 150 NaCl, 10 KCl, 1 MgCl2, 3 CaCl2, 10 HEPES, pH 7.4 with NaOH. Patch pipettes were filled with an electrode solution of composition (in mM): 160 KCl, 0.5 MgCl2, 10 HEPES, 1 EGTA, pH 7.4 with KOH.
as §2, §3
as §4, with “(˜15 mm)” for “(˜15mm)”
as §5
as §6, with “IK>500” for “IK>400”, “hKv1.5” for “hKv1.3”
Electrophysiology voltage-step protocols and analysis of data was performed as follows. Data was sampled at 5kHz, and filtered with a −3 dB bandwidth of 2.5 kHz.
Cells were held at a voltage of −80 mV. […]

T2 sequence (P22460 whole entry): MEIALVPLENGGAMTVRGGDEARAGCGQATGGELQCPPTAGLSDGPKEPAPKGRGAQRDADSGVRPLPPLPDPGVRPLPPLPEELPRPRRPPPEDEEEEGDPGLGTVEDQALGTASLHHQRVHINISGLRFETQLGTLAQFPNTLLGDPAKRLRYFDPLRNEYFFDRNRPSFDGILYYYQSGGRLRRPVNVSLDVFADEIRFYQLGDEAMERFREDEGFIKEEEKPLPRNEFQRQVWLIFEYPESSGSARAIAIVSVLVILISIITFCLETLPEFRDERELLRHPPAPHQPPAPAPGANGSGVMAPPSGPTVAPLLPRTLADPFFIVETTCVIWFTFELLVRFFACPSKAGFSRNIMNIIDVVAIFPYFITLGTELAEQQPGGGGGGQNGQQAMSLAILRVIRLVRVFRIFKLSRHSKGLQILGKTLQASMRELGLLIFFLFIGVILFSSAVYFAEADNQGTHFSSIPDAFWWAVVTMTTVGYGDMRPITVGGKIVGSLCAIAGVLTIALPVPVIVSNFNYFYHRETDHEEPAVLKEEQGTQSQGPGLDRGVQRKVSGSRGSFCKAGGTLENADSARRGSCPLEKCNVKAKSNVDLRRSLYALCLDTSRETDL
T1 sequence (P22001 whole entry): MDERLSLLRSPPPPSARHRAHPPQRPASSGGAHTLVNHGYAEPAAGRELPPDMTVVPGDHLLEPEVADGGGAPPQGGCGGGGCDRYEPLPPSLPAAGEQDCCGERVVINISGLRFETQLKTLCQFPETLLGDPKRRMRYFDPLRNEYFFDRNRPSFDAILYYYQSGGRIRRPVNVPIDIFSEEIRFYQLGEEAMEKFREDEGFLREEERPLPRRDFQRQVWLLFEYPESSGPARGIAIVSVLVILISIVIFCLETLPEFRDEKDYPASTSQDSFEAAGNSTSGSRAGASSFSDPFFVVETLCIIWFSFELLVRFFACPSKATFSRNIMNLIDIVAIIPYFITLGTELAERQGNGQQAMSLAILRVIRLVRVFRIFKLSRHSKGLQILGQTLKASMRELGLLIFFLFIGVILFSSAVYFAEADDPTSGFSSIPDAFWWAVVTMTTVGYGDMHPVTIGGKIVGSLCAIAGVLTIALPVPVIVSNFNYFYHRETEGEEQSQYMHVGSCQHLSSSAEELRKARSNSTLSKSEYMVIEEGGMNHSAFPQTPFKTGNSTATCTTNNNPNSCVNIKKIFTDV

inhibition at 1 µM [1]: 32%
inhibition at 1 µM [2]: 20%
SMILES: Fc1ccc(-c2csc3nccc(NCc4ccccn4)c23)cc1 [Example 36, [3-(4-Fluoro-phenyl)-thieno[2,3-b]pyridin-4-yl]-pyridin-2-ylmethyl-amine]

inhibition at 1 µM [1]: 8%
inhibition at 1 µM [2]: 82%
SMILES: OCC(CO)c1cc(NCc2ccccn2)c2c(-c3ccccc3)csc2n1 [Example 44, 2-{3-Phenyl-4-[(pyridin-2-ylmethyl)-amino]-thieno[2,3-b]pyridin-6-yl}-propane-1,3-diol]

inhibition at 1 µM [1]: 20%
inhibition at 1 µM [2]: 94%
SMILES: OCCc1cc(NCc2ccccn2)c2c(-c3ccccc3)csc2n1 [Example 43, 2-{3-Phenyl-4-[(pyridin-2-ylmethyl)-amino]-thieno[2,3-b]pyridin-6-yl}-ethanol]

inhibition at 1 µM [1]: 30%
inhibition at 1 µM [2]: 36%
SMILES: Cc1cccc(CNc2ccnc3scc(-c4ccc(F)cc4)c23)n1 [Example 37, [3-(4-Fluoro-phenyl)-thieno[2,3-b]pyridin-4-yl]-(6-methyl-pyridin-2-ylmethyl)-amine]

inhibition at 1 µM [1]: 45%
inhibition at 1 µM [2]: 62%
SMILES: c1ccc(-c2csc3nccc(NCc4ccccn4)c23)cc1 [Example 35, (3-Phenyl-thieno[2,3-b]pyridin-4-yl)-pyridin-2-ylmethyl-amine]

The next lines start with the compound.

SMILES: Clc1cc(NCc2ccccn2)nc2scc(-c3ccccc3)c12 [Example 20, (4-Chloro-3-phenyl-thieno[2,3-b]pyridin-6-yl)-pyridin-2-ylmethyl-amine]
inhibition at 1 µM [1]: 99%
inhibition at 1 µM [2]: 93%

SMILES: Fc1ccc(-c2csc3nc(Cl)cc(NCc4ccccn4)c23)cc1 [Example 21, [6-Chloro-3-(4-fluoro-phenyl)-thieno[2,3-b]pyridin-4-yl]-pyridin-2-ylmethyl-amine]
inhibition at 1 µM [1]: 71%
inhibition at 1 µM [2]: 59%

SMILES: OCCN(CCO)c1cc(NCc2ccccn2)c2c(-c3ccc(F)cc3)csc2n1 [Example 26, 2-[{3-(4-Fluoro-phenyl)-4-[(pyridin-2-ylmethyl)-amino]-thieno[2,3-b]pyridin-6-yl}-(2-hydroxy-ethyl)-amino]-ethanol]
inhibition at 1 µM [1]: 45%
inhibition at 1 µM [2]: 91%

SMILES: Cc1cccc(CNc2cc(N(CCO)CCO)nc3scc(-c4ccc(F)cc4)c23)n1 [Example 28, 2-[{3-(4-Fluoro-phenyl)-4-[(6-methyl-pyridin-2-ylmethyl)-amino]-thieno[2,3-b]pyridin-6-yl}-(2-hydroxy-ethyl)-amino]-ethanol]
inhibition at 1 µM [1]: 20%
inhibition at 1 µM [2]: 21%

SMILES: Cc1cccc(CNc2cc(NCCO)nc3scc(-c4ccc(F)cc4)c23)n1 [Example 29, 2-{3-(4-Fluoro-phenyl)-4-[(6-methyl-pyridin-2-ylmethyl)-amino]-thieno[2,3-b]pyridin-6-ylamino}-ethanol]
inhibition at 1 µM [1]: 62%
inhibition at 1 µM [2]: 31%

SMILES: Clc1cc(NCc2ccccn2)c2c(-c3ccccc3)csc2n1 [Example 19, (6-Chloro-3-phenyl-thieno[2,3-b]pyridin-4-yl)-pyridin-2-ylmethyl-amine]
inhibition at 1 µM [1]: 72%
inhibition at 1 µM [2]: 88%

SMILES: OCCNc1cc(NCc2ccccn2)c2c(-c3ccc(F)cc3)csc2n1 [Example 27, 2-{3-(4-Fluoro-phenyl)-4-[(pyridin-2-ylmethyl)-amino]-thieno[2,3-b]pyridin-6-ylamino}-ethanol]
inhibition at 1 µM [1]: 72%
inhibition at 1 µM [2]: 55%

SMILES: OCCNc1cc(NCc2ccccn2)c2c(-c3ccccc3)csc2n1 [Example 24, 2-{3-Phenyl-4-[(pyridin-2-ylmethyl)-amino]-thieno[2,3-b]pyridin-6-ylamino}-ethanol]
inhibition at 1 µM [1]: 93%
inhibition at 1 µM [2]: 79%

SMILES: OCCN(CCO)c1cc(NCc2ccccn2)c2c(-c3ccccc3)csc2n1 [Example 25, 2-((2-Hydroxy-ethyl)-{3-phenyl-4-[(pyridin-2-ylmethyl)-amino]-thieno[2,3-b]pyridin-6-yl}-amino)-ethanol]
inhibition at 1 µM [1]: 82%
inhibition at 1 µM [2]: 81%

SMILES: Cc1cccc(CNc2cc(Cl)nc3scc(-c4ccc(F)cc4)c23)n1 [Example 22, [6-Chloro-3-(4-fluoro-phenyl)-thieno[2,3-b]pyridin-4-yl]-(6-methyl-pyridin-2-ylmethyl)-amine]
inhibition at 1 µM [1]: 78%
inhibition at 1 µM [2]: 95%
